Target: T1, phosphodiesterase 4 (PDE4), high-affinity rolipram binding sites (PDE4H)
T1 construct: native PDE4 in particulate (cell membrane) portion of guinea pig whole brain; subtype not specified
Assay: [3H]-rolipram radioligand displacement on guinea pig brain membranes; weak, […] displacement at […]
Set-up: species or system Cavia porcellus
Conditions: read-out: EC50 (the source's name)

COc1ccc(-c2coc3cc(O)cc(O)c3c2=O)cc1 [Biochanin A] gave an IC50 of over 300 µM.

Source: paper PMC3062156, “Biochanin A, a Phytoestrogenic Isoflavone with Selective Inhibition of Phosphodiesterase 4, Suppresses Ovalbumin-Induced Airway Hyperresponsiveness” (Evidence-based Complementary and Alternative Medicine : eCAM, 2011)
